Measurements taken from patent US20260256792A1, “TREATMENT OF CHRONIC SPONTANEOUS URTICARIA BY ADMINISTERING (R)-2-[3-[4-AMINO-3-(2-FLUORO-4-PHENOXY-PHENYL)PYRAZOLO[3,4-D]PYRIMIDIN-1-YL]PIPERIDINE-1-CARBONYL]-4-METHYL-4-[4-(OXETAN-3-YL)PIPERAZIN-1-YL]PENT-2-ENENITRILE” (priority 2023, published 2026).

Tested on: moderate-to-severe chronic spontaneous urticaria (CSU)
Assay: Phase 2 CSU study: itch severity score over 7 days (ISS7)
Type: in vivo, human
Conditions: for Non-responder n (%) (ISS7 reduction of 5 points or more) / OR for rilzabrutinib vs. placebo (ISS7 reduction of 5 points or more) / RRD (%) for rilzabrutinib vs. placebo (ISS7 reduction of 5 points or more) / Responder n (%) (ISS7 reduction of 5 points or more) / Imputed non-responder n (%) (ISS7 reduction of 5 points or more): ITT population
From the text: The study comprises a 12 week, randomized, double-blind, placebo-controlled, multi-center, dose-ranging efficacy and safety phase, followed by a 40 week open label extension (OLE) phase (see FIG. 1). The study consists of three phases and an optional OLE phase. […] Clinically, CSU is characterized by the spontaneous and recurrent appearance of pruritic hives. The proposed primary endpoints were the UAS7 at Week 12 in EU and EU reference countries and the ISS7 in the US. Regardless of where a participant was from, all assessments were the same. The UAS7 score is a composite score containing both the HSS7 and the ISS7. This allowed a global assessment of the two key components of urticaria: hives and itch. […] The UAS is a validated PRO measure. […] The daily UAS scores range from 0 to 6 point/day. […] Patients were to complete the UAS using the e-diary. […] The following secondary endpoints were to be analyzed using the same approach as for the primary endpoint: • Change from baseline in UAS7 at Week 4 • Change from baseline in UAS7 at Week 12 (for US and US reference countries) • Change from baseline in ISS7 at Week 12 (except US and US reference countries) • Change from baseline in HSS7 at Week 12

CC(C)(C=C(C#N)C(=O)N1CCC[C@@H](n2nc(-c3ccc(Oc4ccccc4)cc3F)c3c(N)ncnc32)C1)N1CCN(C2COC2)CC1 [rilzabrutinib, (R)-2-[3-[4-amino-3-(2-fluoro-4-phenoxy-phenyl)pyrazolo[3,4-d]pyrimidin-1-yl]piperidine-1-carbonyl]-4-methyl-4-[4-(oxetan-3-yl)piperazin-1-yl]pent-2-enenitrile]
Non-responder n (%) (ISS7 reduction of 5 points or more) (400 mg QPM, Week 4): 20 (52.6) n (%)
OR for rilzabrutinib vs. placebo (ISS7 reduction of 5 points or more) (400 mg QPM, Week 4): 1.076
RRD (%) for rilzabrutinib vs. placebo (ISS7 reduction of 5 points or more) (400 mg QPM, Week 4): 1.7%
Responder n (%) (ISS7 reduction of 5 points or more) (400 mg QPM, Week 4): 18 (47.4) n (%)
Non-responder n (%) (ISS7 reduction of 5 points or more) (400 mg QPM, Week 6): 20 (52.6) n (%)
OR for rilzabrutinib vs. placebo (ISS7 reduction of 5 points or more) (400 mg QPM, Week 6): 1.066
RRD (%) for rilzabrutinib vs. placebo (ISS7 reduction of 5 points or more) (400 mg QPM, Week 6): 1.5%
Responder n (%) (ISS7 reduction of 5 points or more) (400 mg QPM, Week 6): 18 (47.4) n (%)
Imputed non-responder n (%) (ISS7 reduction of 5 points or more) (400 mg QPM, Week 7): 6 (15.8) n (%)
Non-responder n (%) (ISS7 reduction of 5 points or more) (400 mg QPM, Week 7): 19 (50.0) n (%)
OR for rilzabrutinib vs. placebo (ISS7 reduction of 5 points or more) (400 mg QPM, Week 7): 1.138
RRD (%) for rilzabrutinib vs. placebo (ISS7 reduction of 5 points or more) (400 mg QPM, Week 7): 3.1%
Responder n (%) (ISS7 reduction of 5 points or more) (400 mg QPM, Week 7): 19 (50.0) n (%)
Imputed non-responder n (%) (ISS7 reduction of 5 points or more) (400 mg QPM, Week 8): 7 (18.4) n (%)
Non-responder n (%) (ISS7 reduction of 5 points or more) (400 mg QPM, Week 8): 20 (52.6) n (%)
OR for rilzabrutinib vs. placebo (ISS7 reduction of 5 points or more) (400 mg QPM, Week 8): 0.836
RRD (%) for rilzabrutinib vs. placebo (ISS7 reduction of 5 points or more) (400 mg QPM, Week 8): −4.5%
Responder n (%) (ISS7 reduction of 5 points or more) (400 mg QPM, Week 8): 18 (47.4) n (%)
Imputed non-responder n (%) (ISS7 reduction of 5 points or more) (400 mg QPM, Week 9): 6 (15.8) n (%)
Non-responder n (%) (ISS7 reduction of 5 points or more) (400 mg QPM, Week 9): 18 (47.4) n (%)
OR for rilzabrutinib vs. placebo (ISS7 reduction of 5 points or more) (400 mg QPM, Week 9): 1.294
RRD (%) for rilzabrutinib vs. placebo (ISS7 reduction of 5 points or more) (400 mg QPM, Week 9): 5.8%
Responder n (%) (ISS7 reduction of 5 points or more) (400 mg QPM, Week 9): 20 (52.6) n (%)
Imputed non-responder n (%) (ISS7 reduction of 5 points or more) (400 mg QPM, Week 10): 6 (15.8) n (%)
Non-responder n (%) (ISS7 reduction of 5 points or more) (400 mg QPM, Week 10): 14 (36.8) n (%)
OR for rilzabrutinib vs. placebo (ISS7 reduction of 5 points or more) (400 mg QPM, Week 10): 1.593
Responder n (%) (ISS7 reduction of 5 points or more) (400 mg QPM, Week 10): 24 (63.2) n (%)
Imputed non-responder n (%) (ISS7 reduction of 5 points or more) (400 mg QPM, Week 11): 7 (18.4) n (%)
Non-responder n (%) (ISS7 reduction of 5 points or more) (400 mg QPM, Week 11): 17 (44.7) n (%)
OR for rilzabrutinib vs. placebo (ISS7 reduction of 5 points or more) (400 mg QPM, Week 11): 0.938
RRD (%) for rilzabrutinib vs. placebo (ISS7 reduction of 5 points or more) (400 mg QPM, Week 11): −1.5%
Responder n (%) (ISS7 reduction of 5 points or more) (400 mg QPM, Week 11): 21 (55.3) n (%)
Imputed non-responder n (%) (ISS7 reduction of 5 points or more) (400 mg QPM, Week 12): 10 (26.3) n (%)
Non-responder n (%) (ISS7 reduction of 5 points or more) (400 mg QPM, Week 12): 21 (55.3) n (%)
OR for rilzabrutinib vs. placebo (ISS7 reduction of 5 points or more) (400 mg QPM, Week 12): 0.905
RRD (%) for rilzabrutinib vs. placebo (ISS7 reduction of 5 points or more) (400 mg QPM, Week 12): −2.6%
Responder n (%) (ISS7 reduction of 5 points or more) (400 mg QPM, Week 12): 17 (44.7) n (%)
Imputed non-responder n (%) (ISS7 reduction of 5 points or more) (400 mg TID, Week 2): 0 n (%)
Non-responder n (%) (ISS7 reduction of 5 points or more) (400 mg TID, Week 2): 13 (31.7) n (%)
OR for rilzabrutinib vs. placebo (ISS7 reduction of 5 points or more) (400 mg TID, Week 2): 4.772
RRD (%) for rilzabrutinib vs. placebo (ISS7 reduction of 5 points or more) (400 mg TID, Week 2): 35.9%
Responder n (%) (ISS7 reduction of 5 points or more) (400 mg TID, Week 2): 28 (68.3) n (%)
Imputed non-responder n (%) (ISS7 reduction of 5 points or more) (400 mg TID, Week 3): 0 n (%)
Non-responder n (%) (ISS7 reduction of 5 points or more) (400 mg TID, Week 3): 12 (29.3) n (%)
OR for rilzabrutinib vs. placebo (ISS7 reduction of 5 points or more) (400 mg TID, Week 3): 4.110
RRD (%) for rilzabrutinib vs. placebo (ISS7 reduction of 5 points or more) (400 mg TID, Week 3): 37.3%
Responder n (%) (ISS7 reduction of 5 points or more) (400 mg TID, Week 3): 29 (70.7) n (%)
Imputed non-responder n (%) (ISS7 reduction of 5 points or more) (400 mg TID, Week 4): 3 (7.3) n (%)
Non-responder n (%) (ISS7 reduction of 5 points or more) (400 mg TID, Week 4): 13 (31.7) n (%)
OR for rilzabrutinib vs. placebo (ISS7 reduction of 5 points or more) (400 mg TID, Week 4): 2.155
RRD (%) for rilzabrutinib vs. placebo (ISS7 reduction of 5 points or more) (400 mg TID, Week 4): 18.8%
Responder n (%) (ISS7 reduction of 5 points or more) (400 mg TID, Week 4): 28 (68.3) n (%)
Imputed non-responder n (%) (ISS7 reduction of 5 points or more) (400 mg TID, Week 5): 3 (7.3) n (%)
Non-responder n (%) (ISS7 reduction of 5 points or more) (400 mg TID, Week 5): 11 (26.8) n (%)
OR for rilzabrutinib vs. placebo (ISS7 reduction of 5 points or more) (400 mg TID, Week 5): 2.433
RRD (%) for rilzabrutinib vs. placebo (ISS7 reduction of 5 points or more) (400 mg TID, Week 5): 20.9%
Responder n (%) (ISS7 reduction of 5 points or more) (400 mg TID, Week 5): 30 (73.2) n (%)
Imputed non-responder n (%) (ISS7 reduction of 5 points or more) (400 mg TID, Week 6): 5 (12.2) n (%)
Non-responder n (%) (ISS7 reduction of 5 points or more) (400 mg TID, Week 6): 16 (39.0) n (%)
OR for rilzabrutinib vs. placebo (ISS7 reduction of 5 points or more) (400 mg TID, Week 6): 1.574
Responder n (%) (ISS7 reduction of 5 points or more) (400 mg TID, Week 6): 25 (61.0) n (%)
Imputed non-responder n (%) (ISS7 reduction of 5 points or more) (400 mg TID, Week 7): 6 (14.6) n (%)
Non-responder n (%) (ISS7 reduction of 5 points or more) (400 mg TID, Week 7): 14 (34.1) n (%)
OR for rilzabrutinib vs. placebo (ISS7 reduction of 5 points or more) (400 mg TID, Week 7): 2.038
RRD (%) for rilzabrutinib vs. placebo (ISS7 reduction of 5 points or more) (400 mg TID, Week 7): 16.8%
Responder n (%) (ISS7 reduction of 5 points or more) (400 mg TID, Week 7): 27 (65.9) n (%)
Imputed non-responder n (%) (ISS7 reduction of 5 points or more) (400 mg TID, Week 8): 8 (19.5) n (%)
Non-responder n (%) (ISS7 reduction of 5 points or more) (400 mg TID, Week 8): 13 (31.7) n (%)
OR for rilzabrutinib vs. placebo (ISS7 reduction of 5 points or more) (400 mg TID, Week 8): 1.839
RRD (%) for rilzabrutinib vs. placebo (ISS7 reduction of 5 points or more) (400 mg TID, Week 8): 14.6%
Responder n (%) (ISS7 reduction of 5 points or more) (400 mg TID, Week 8): 28 (68.3) n (%)
Imputed non-responder n (%) (ISS7 reduction of 5 points or more) (400 mg TID, Week 9): 7 (17.1) n (%)
Non-responder n (%) (ISS7 reduction of 5 points or more) (400 mg TID, Week 9): 12 (29.3) n (%)
OR for rilzabrutinib vs. placebo (ISS7 reduction of 5 points or more) (400 mg TID, Week 9): 2.730
RRD (%) for rilzabrutinib vs. placebo (ISS7 reduction of 5 points or more) (400 mg TID, Week 9): 22.5%
Responder n (%) (ISS7 reduction of 5 points or more) (400 mg TID, Week 9): 29 (70.7) n (%)
Imputed non-responder n (%) (ISS7 reduction of 5 points or more) (400 mg TID, Week 10): 7 (17.1) n (%)
Non-responder n (%) (ISS7 reduction of 5 points or more) (400 mg TID, Week 10): 14 (34.1) n (%)
OR for rilzabrutinib vs. placebo (ISS7 reduction of 5 points or more) (400 mg TID, Week 10): 1.669
Responder n (%) (ISS7 reduction of 5 points or more) (400 mg TID, Week 10): 27 (65.9) n (%)
Imputed non-responder n (%) (ISS7 reduction of 5 points or more) (400 mg TID, Week 11): 6 (14.6) n (%)
Non-responder n (%) (ISS7 reduction of 5 points or more) (400 mg TID, Week 11): 12 (29.3) n (%)
OR for rilzabrutinib vs. placebo (ISS7 reduction of 5 points or more) (400 mg TID, Week 11): 1.699
Responder n (%) (ISS7 reduction of 5 points or more) (400 mg TID, Week 11): 29 (70.7) n (%)
ISS7 % Change difference for rilzabrutinib vs. placebo LS Mean (95% CI) (ITT, 400 mg BID, Week 1): −23.55%
ISS7 % Change from baseline LS Mean (SE) (ITT, 400 mg BID, Week 1): −34.02 (5.28) %
ISS7 Change difference for rilzabrutinib vs. placebo LS Mean (95% CI) (ITT, 400 mg BID, Week 1): −3.23
ISS7 Change from baseline LS Mean (SE) (ITT, 400 mg BID, Week 1): −5.23 (0.78)
ISS7 Post-baseline Mean (SD) (ITT, 400 mg BID, Week 1): 10.65 (5.86)
ISS7 % Change difference for rilzabrutinib vs. placebo LS Mean (95% CI) (ITT, 400 mg BID, Week 2): −16.63%
ISS7 % Change from baseline LS Mean (SE) (ITT, 400 mg BID, Week 2): −36.11 (5.26) %
